Test results as given in patent US9932314B2, “Pyrazole compounds and their use as T-type calcium channel blockers” (IDORSIA PHARMACEUTICALS LTD, priority 2015, dated 2018).

Each molecule was assayed against T1, voltage-dependent T-type calcium channel subunit alpha-1G (Cav3.2) (Homo sapiens, UniProt O95180) (assay: FLIPR calcium flux assay, HEK293 cells recombinantly expressing Cav3.2). Details: Cav3.2-channel, Fluo-4-AM, 3 min incubation, stimulation with 10 mM CaCl2.
T1 construct: expressed in transfected cells; host or cells: HEK293
Format: cell-based
How it was run: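 HEK293 cells stably expressing human Cav3.2 were loaded with Fluo-4-AM. Compounds diluted in TEAC buffer (pH 7.2) were preincubated for 3 min, then Ca2+ entry was triggered by 10 mM final CaCl2. Inhibition curves were fitted sigmoidally to the area under the fluorescence trace.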

T1 sequence (O95180 whole entry): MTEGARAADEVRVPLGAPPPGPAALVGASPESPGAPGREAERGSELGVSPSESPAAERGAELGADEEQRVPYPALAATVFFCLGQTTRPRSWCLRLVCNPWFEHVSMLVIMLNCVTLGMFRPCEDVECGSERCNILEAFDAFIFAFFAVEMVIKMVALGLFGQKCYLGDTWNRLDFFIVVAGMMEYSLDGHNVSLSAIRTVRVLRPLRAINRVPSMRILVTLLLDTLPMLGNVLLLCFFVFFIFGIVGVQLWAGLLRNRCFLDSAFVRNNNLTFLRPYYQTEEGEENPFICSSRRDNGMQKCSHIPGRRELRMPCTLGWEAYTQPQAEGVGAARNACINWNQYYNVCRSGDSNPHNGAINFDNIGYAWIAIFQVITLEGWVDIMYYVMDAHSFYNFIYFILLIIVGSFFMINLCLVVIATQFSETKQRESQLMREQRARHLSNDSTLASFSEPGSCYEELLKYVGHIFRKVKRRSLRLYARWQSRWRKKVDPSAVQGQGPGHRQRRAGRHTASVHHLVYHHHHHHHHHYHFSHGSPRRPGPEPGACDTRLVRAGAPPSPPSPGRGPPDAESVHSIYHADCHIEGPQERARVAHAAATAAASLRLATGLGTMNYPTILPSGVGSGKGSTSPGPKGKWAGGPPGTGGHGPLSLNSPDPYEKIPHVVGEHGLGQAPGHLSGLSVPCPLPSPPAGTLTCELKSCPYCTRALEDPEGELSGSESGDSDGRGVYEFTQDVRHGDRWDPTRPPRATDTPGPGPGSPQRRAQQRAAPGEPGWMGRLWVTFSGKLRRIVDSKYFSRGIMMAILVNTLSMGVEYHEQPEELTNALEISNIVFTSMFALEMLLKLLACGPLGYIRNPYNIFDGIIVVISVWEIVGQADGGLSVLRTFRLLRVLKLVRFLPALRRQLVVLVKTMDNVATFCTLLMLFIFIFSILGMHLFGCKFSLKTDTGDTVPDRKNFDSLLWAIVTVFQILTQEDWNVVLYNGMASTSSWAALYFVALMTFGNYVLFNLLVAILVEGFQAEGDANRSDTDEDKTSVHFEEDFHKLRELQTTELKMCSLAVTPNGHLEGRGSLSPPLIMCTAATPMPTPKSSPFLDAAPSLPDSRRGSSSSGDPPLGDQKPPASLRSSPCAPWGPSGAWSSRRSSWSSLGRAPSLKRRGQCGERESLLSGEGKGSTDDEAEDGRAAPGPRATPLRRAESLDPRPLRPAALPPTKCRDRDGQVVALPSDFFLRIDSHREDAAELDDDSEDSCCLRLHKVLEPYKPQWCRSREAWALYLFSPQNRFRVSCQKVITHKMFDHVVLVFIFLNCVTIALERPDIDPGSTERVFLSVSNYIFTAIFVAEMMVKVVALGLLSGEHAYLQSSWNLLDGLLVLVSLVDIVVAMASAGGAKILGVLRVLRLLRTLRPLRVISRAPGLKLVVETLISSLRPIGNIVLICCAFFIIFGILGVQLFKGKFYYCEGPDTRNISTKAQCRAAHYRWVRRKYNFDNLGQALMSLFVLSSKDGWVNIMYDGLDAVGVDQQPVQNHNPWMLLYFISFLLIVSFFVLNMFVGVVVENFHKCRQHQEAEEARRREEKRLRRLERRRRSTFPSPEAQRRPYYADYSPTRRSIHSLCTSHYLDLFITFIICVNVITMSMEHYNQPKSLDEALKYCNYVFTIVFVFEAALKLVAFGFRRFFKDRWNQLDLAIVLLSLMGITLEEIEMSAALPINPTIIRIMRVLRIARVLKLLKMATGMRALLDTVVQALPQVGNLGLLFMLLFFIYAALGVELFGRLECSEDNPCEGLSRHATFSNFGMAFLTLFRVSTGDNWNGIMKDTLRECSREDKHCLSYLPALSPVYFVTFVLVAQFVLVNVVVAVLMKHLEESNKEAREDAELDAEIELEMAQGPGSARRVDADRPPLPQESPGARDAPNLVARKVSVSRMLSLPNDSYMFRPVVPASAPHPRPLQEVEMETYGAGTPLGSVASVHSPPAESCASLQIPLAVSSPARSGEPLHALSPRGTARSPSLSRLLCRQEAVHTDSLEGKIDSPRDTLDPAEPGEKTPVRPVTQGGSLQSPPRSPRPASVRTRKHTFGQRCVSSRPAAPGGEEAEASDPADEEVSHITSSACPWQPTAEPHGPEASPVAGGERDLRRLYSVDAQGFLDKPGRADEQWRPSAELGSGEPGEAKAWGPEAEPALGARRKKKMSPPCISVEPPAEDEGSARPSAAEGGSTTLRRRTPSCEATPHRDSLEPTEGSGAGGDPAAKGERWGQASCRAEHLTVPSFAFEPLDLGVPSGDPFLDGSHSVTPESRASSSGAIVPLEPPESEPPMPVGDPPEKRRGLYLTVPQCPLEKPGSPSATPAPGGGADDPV

IC50 [nM]	Molecule
263	Cn1ncc2ccc(CC(=O)Nc3ccn(Cc4ccc(F)c(C#N)c4)n3)cc21 [Example 308, N-[1-(3-Cyano-4-fluoro-benzyl)-1H-pyrazol-3-yl]-2-(1-methyl-1H-indazol-6-yl)-acetamide]
30	CC1COc2cc(CC(=O)Nc3ccn(Cc4ccc(C#N)cn4)n3)ccc2C1 (racemic) [Example 388, rac-N-[1-(5-Cyano-pyridin-2-ylmethyl)-1H-pyrazol-3-yl]-2-(3-methyl-chroman-7-yl)-acetamide]
126	CC(C)c1ccc(CC(=O)Nc2ccn(Cc3ccc(N4CCC4)cn3)n2)cc1 [Example 394, N-[1-(5-Azetidin-1-yl-pyridin-2-ylmethyl)-1H-pyrazol-3-yl]-2-(4-isopropyl-phenyl)-acetamide]
36	N#Cc1ccc(Cn2ccc(NC(=O)Cc3ccc([C@@H]4C[C@H]4C(F)(F)F)cc3)n2)nc1 (racemic) [Example 383, rac-N-[1-(5-Cyano-pyridin-2-ylmethyl)-1H-pyrazol-3-yl]-2-[4-((1R*,2R*)-2-trifluoromethyl-cyclopropyl)-phenyl]-acetamide]
6.5	Cn1ccc2cc(CC(=O)Nc3ccn(Cc4ccc(C#N)c(F)c4)n3)ccc21 [Example 292, N-[1-(4-Cyano-3-fluoro-benzyl)-1H-pyrazol-3-yl]-2-(1-methyl-1H-indol-5-yl)-acetamide]
13	Cc1ccc(Cn2ccc(NC(=O)Cc3ccc(C(C)(C)C)cc3)n2)nc1C#N [Example 371, 2-(4-tert-Butyl-phenyl)-N-[1-(6-cyano-5-methyl-pyridin-2-ylmethyl)-1H-pyrazol-3-yl]-acetamide]
188	N#Cc1ccc(Cn2ccc(NC(=O)Cc3ccc(N4CCCC4)nc3)n2)nc1 [Example 276, N-[1-(5-Cyano-pyridin-2-ylmethyl)-1H-pyrazol-3-yl]-2-(6-pyrrolidin-1-yl-pyridin-3-yl)-acetamide]
20	CC(C)(c1ccc(CC(=O)Nc2ccn(Cc3ccc(C#N)cn3)n2)cc1)C(F)(F)F [Example 376, N-[1-(5-Cyano-pyridin-2-ylmethyl)-1H-pyrazol-3-yl]-2-[4-(2,2,2-trifluoro-1,1-dimethyl-ethyl)-phenyl]-acetamide]
208	CC1(COc2ccc(CC(=O)Nc3ccn(Cc4ccc(C#N)cc4)n3)cc2)COC1 [Example 285, N-[1-(4-Cyano-benzyl)-1H-pyrazol-3-yl]-2-[4-(3-methyl-oxetan-3-ylmethoxy)-phenyl]-acetamide]
118	N#Cc1ccc(Cn2ccc(NC(=O)Cc3ccc(OCC4CC(F)(F)C4)cc3)n2)nc1 [Example 304, N-[1-(5-Cyano-pyridin-2-ylmethyl)-1H-pyrazol-3yl]-2-[4-(3,3-difluoro-cyclobutylmethoxy)-phenyl]-acetamide]
101	CC(C)Cc1ccc(CC(=O)Nc2ccn(Cc3ccc(C#N)cn3)n2)cc1C#N [Example 392, 2-(3-Cyano-4-isobutyl-phenyl)-N-[1-(5-cyano-pyridin-2-ylmethyl)-1H-pyrazol-3-yl]-acetamide]
122	CC1(C)COc2cc(CC(=O)Nc3ccn(Cc4ccc(C#N)cn4)n3)ccc21 [Example 387, N-[1-(5-Cyano-pyridin-2-ylmethyl)-1H-pyrazol-3-yl]-2-(3,3-dimethyl-2,3-dihydro-benzofuran-6-yl)-acetamide]
32	N#Cc1cc(Cn2ccc(NC(=O)Cc3ccc(C4(C(F)(F)F)CC4)cc3)n2)ccc1F [Example 314, N-[1-(3-Cyano-4-fluoro-benzyl)-1H-pyrazol-3-yl]-2-[4-(1-trifluoromethyl-cyclopropyl)-phenyl]-acetamide]
43	CC1(COc2ccc(CC(=O)Nc3ccn(Cc4ccc(C#N)cc4)n3)cc2)CC(F)(F)C1 [Example 298, N-[1-(4-Cyano-benzyl)-1H-pyrazol-3-yl]-2-[4-(3,3-difluoro-1-methyl-cyclobutylmethoxy)-phenyl]-acetamide]

More lines, now with the values behind:

Molecule	IC50 [nM]
Cc1nc(-c2ccc(CC(=O)Nc3ccn(Cc4ccc(F)c(F)c4)n3)cc2)no1 [Example 235, N-[1-(3,4-Difluoro-benzyl)-1H-pyrazol-3-yl]-2-[4-(5-methyl-[1,2,4]oxadiazol-3-yl)-phenyl]-acetamide]	42
CC(C)c1ccc(CC(=O)Nc2ccn(Cc3ccc(Cl)cc3)n2)cc1 [Example 1, N-[1-(4-Chloro-benzyl)-1H-pyrazol-3-yl]-2-(4-isopropyl-phenyl)-acetamide]	14
CCN(C)c1ccc(CC(=O)Nc2ccn(Cc3ccc(F)c(F)c3)n2)cn1 [Example 172, N-[1-(3,4-Difluoro-benzyl)-1H-pyrazol-3-yl]-2-[6-(ethyl-methyl-amino)-pyridin-3-yl]-acetamide]	15
N#Cc1ccc(Cn2ccc(NC(=O)Cc3ccc(OC4COC4)cc3)n2)nc1 [Example 247, N-[1-(5-Cyano-pyridin-2-ylmethyl)-1H-pyrazol-3-yl]-2-[4-(oxetan-3-yloxy)-phenyl]-acetamide]	2590
CN(CC(F)F)c1ccc(CC(=O)Nc2ccn(Cc3ccc(C#N)cn3)n2)cn1 [Example 151, N-[1-(5-Cyano-pyridin-2-ylmethyl)-1H-pyrazol-3-yl]-2-{6-[(2,2-difluoro-ethyl)-methyl-amino]-pyridin-3-yl}-acetamide]	649
O=C(Cc1ccc(-c2ncccn2)cc1)Nc1ccn(Cc2ccc(F)cc2)n1 [Example 85, N-[1-(4-Fluoro-benzyl)-1H-pyrazol-3-yl]-2-(4-pyrimidin-2-yl-phenyl)-acetamide]	301
N#Cc1ccc(Cn2ccc(NC(=O)Cc3ccc(OCC(F)(F)F)cc3)n2)cc1 [Example 47, N-[1-(4-Cyano-benzyl)-1H-pyrazol-3-yl]-2-[4-(2,2,2-trifluoro-ethoxy)-phenyl]-acetamide]	37
O=C(Cc1ccc(N2CC(F)C2)cc1)Nc1ccn(Cc2ccc(F)cc2)n1 [Example 73, 2-[4-(3-Fluoro-azetidin-1-yl)-phenyl]-N-[1-(4-fluoro-benzyl)-1H-pyrazol-3-yl]-acetamide]	7.9
N#Cc1ccc(Cn2ccc(NC(=O)Cc3ccc(C4(F)COC4)cc3)n2)cc1F [Example 253, N-[1-(4-Cyano-3-fluoro-benzyl)-1H-pyrazol-3-yl]-2-[4-(3-fluoro-oxetan-3-yl)-phenyl]-acetamide]	57
CC(C)Oc1ccc(Cn2ccc(NC(=O)Cc3ccc(C(C)C)cc3)n2)nc1 [Example 105, N-[1-(5-Isopropoxy-pyridin-2-ylmethyl)-1H-pyrazol-3-yl]-2-(4-isopropyl-phenyl)-acetamide]	31
CCc1ccc(Cn2ccc(NC(=O)Cc3ccc(N(C)C)nc3)n2)cc1 [Example 35, 2-(6-Dimethylamino-pyridin-3-yl)-N-[1-(4-ethyl-benzyl)-1H-pyrazol-3-yl]-acetamide]	43
COc1ccc(Cn2ccc(NC(=O)Cc3ccc(OCC(F)(F)F)cc3)n2)cc1 [Example 45, N-[1-(4-Methoxy-benzyl)-1H-pyrazol-3-yl]-2-[4-(2,2,2-trifluoro-ethoxy)-phenyl]-acetamide]	33
CN(C)c1ccc(CC(=O)Nc2ccn(Cc3ccc(Cl)c(F)c3)n2)cc1 [Example 26, N-[1-(4-Chloro-3-fluoro-benzyl)-1H-pyrazol-3-yl]-2-(4-dimethylamino-phenyl)-acetamide]	5.4
Cc1cncnc1-c1ccc(CC(=O)Nc2ccn(Cc3ccc(F)cc3)n2)cc1 [Example 92, N-[1-(4-Fluoro-benzyl)-1H-pyrazol-3-yl]-2-[4-(5-methyl-pyrimidin-4-yl)-phenyl]-acetamide]	48
N#Cc1ccc(Cn2ccc(NC(=O)Cc3ccc(N4CC(F)C4)nc3)n2)cc1 [Example 161, N-[1-(4-Cyano-benzyl)-1H-pyrazol-3-yl]-2-[6-(3-fluoro-azetidin-1-yl)-pyridin-3-yl]-acetamide]	258
N#Cc1ccc(Cn2ccc(NC(=O)Cc3ccc(OC4CC(F)(F)C4)cc3)n2)cc1 [Example 273, N-[1-(4-Cyano-benzyl)-1H-pyrazol-3-yl]-2-[4-(3,3-difluoro-cyclobutoxy)-phenyl]-acetamide]	35
N#Cc1ccc(Cn2ccc(NC(=O)Cc3ccc(C4CC4)cc3)n2)nc1 [Example 78, N-[1-(5-Cyano-pyridin-2-ylmethyl)-1H-pyrazol-3-yl]-2-(4-cyclopropyl-phenyl)-acetamide]	275
COC(C)c1ccc(CC(=O)Nc2ccn(Cc3ccc(F)c(F)c3)n2)cc1 (racemic) [Example 202, rac-N-[1-(3,4-Difluoro-benzyl)-1H-pyrazol-3-yl]-2-[4-(1-methoxy-ethyl)-phenyl]-acetamide]	16
CN(c1ccc(CC(=O)Nc2ccn(Cc3ccc(C#N)cn3)n2)cn1)C1CC1 [Example 164, N-[1-(5-Cyano-pyridin-2-ylmethyl)-1H-pyrazol-3-yl]-2-[6-(cyclopropyl(methyl)amino)-pyridin-3-yl]-acetamide]	568
CN1C(=O)COc2cc(CC(=O)Nc3ccn(Cc4ccc(F)c(F)c4)n3)ccc21 [Example 209, N-[1-(3,4-Difluoro-benzyl)-1H-pyrazol-3-yl]-2-(4-methyl-3-oxo-3,4-dihydro-2H-benzo[1,4]oxazin-7-yl)-acetamide]	53
CC(C)c1ccc(CC(=O)Nc2ccn(Cc3ccc(C#N)c(F)c3)n2)cc1 [Example 266, N-[1-(4-Cyano-3-fluoro-benzyl)-1H-pyrazol-3-yl]-2-(4-isopropyl-phenyl)-acetamide]	6.6
N-[1-(5-Cyano-pyridin-2-ylmethyl)-1H-pyrazol-3-yl]-2-[4-(1-methyl-cyclopropyl)-phenyl]-acetamide [Example 375]	9.9
CC(C)Oc1nc(Cn2ccc(NC(=O)Cc3ccc(C(C)C)cc3)n2)ccc1C#N [Example 118, N-[1-(5-Cyano-6-isopropoxy-pyridin-2-ylmethyl)-1H-pyrazol-3-yl]-2-(4-isopropyl-phenyl)-acetamide]	97
N#Cc1ccc(Cn2ccc(NC(=O)Cc3ccc(N4CCC4)cc3)n2)cc1 [Example 54, 2-(4-Azetidin-1-yl-phenyl)-N-[1-(4-cyano-benzyl)-1H-pyrazol-3-yl]-acetamide]	28
